According to patent US20140094446A1, “Cyclic Amino Acids for the Treatment of Pain” (Therexcell Pharma Inc., priority 2008, published 2014):
“Also recorded” adds a separate entry of the source. Marks after values point to notes of the source that are not given here.

What was measured:
formalin foot mice [1] = assay: Formalin foot acute and chronic peripheral pain model, intrathecal application
mice = assay: Sedation observed during the formalin foot test, intrathecal application
Description: At the same time as the analgesia was accessed, the sedation effects of ACBC were determined in the acute and chronic peripheral pain formalin foot model. […] The mice were monitored for 40 min for sedation. aCSF and morphine controls were also tested. The presence or absence of sedation was determined by an observer blinded to the treatment based on degree of spontaneous activity, posture and response to normal stimuli.

formalin foot mice [2] = assay: Formalin foot acute and chronic peripheral pain model, subcutaneous injection, up and down method; type: in vivo; conditions: Mus musculus, sc; subcutaneously, 5 minutes prior to formalin; up and down method of Dixon and Mood; block = 60% decrease of cumulated licking; read-out: ED50 for the reduction of paw licking by 60%
Description: This model involves pre-treatment with the test compound and injection of formalin (5% in 20 microliters) into the right hindpaw of mice. ACBC was injected subcutaneously 5 minutes prior to formalin injection. […] The up and down method of Dixon and Mood was used to establish the ED50.

[3] = tested on: Neurons of the ventrobasal nuclei (thalamocortical neurons); assay: Current- and voltage-clamp recording of thalamic neurons in in vitro slice preparations; conditions: for equilibrium potential for the drug (intersection of drug and control I-V curves): voltage clamp, vs aCSF control curve
[4] = ACBC 5 μL of 250 μM 5 minutes before formalin 5% in 20 μL hindpaw, N=5, P<0.05 vs control
[5] = ACBC 1 μM, normalized to control 5 minutes prior to drug application, single neuron

Structure (SMILES)	phase I licking (early phase, acute pain) (formalin foot mice [1]; [4])	sedation / gross appearance and behavior (in words) (mice; intrathecal, acute and chronic phase of formalin foot test)	Number of mice with sedation (mice; of 5 mice, intrathecal (ACBC 5 μL of 250 μM), monitored 40 min, blinded observer)	phase II licking (late phase, chronic pain) (formalin foot mice [1]; [4])	cumulative paw licking (formalin foot mice [1]; ACBC 5 μL of 250 μM, monitored 40 minutes, p<0.05)	analgesia compared with morphine, acute and chronic phases (formalin foot mice [1]; formalin foot test)	ED50 (formalin foot mice [2])	behavioral toxicity (mice; mouse, in vivo)	sedation / gross appearance and behavior (in words) (mice; mouse, in vivo)	Number of mice with sedation (mice; mouse, in vivo, 40 min)	slope of the I-V curve ([3]; ACBC 1 μM)	holding current 20 minutes after application ([3]; ACBC 1 μM, 3 min application, voltage-clamped at −60 mV, control 33 pA)	Input resistance (Ri) [3, 5]	Membrane potential (Vm) [3, 5]	tonic firing evoked by current pulse injection ([3]; ACBC 1 μM, ventrobasal thalamus, holding potential −60 mV)	equilibrium potential for the drug (intersection of drug and control I-V curves) ([3]; ACBC 1 μM)	persistence of induced outward current ([3]; voltage clamped neurons)	slope of the I-V curve ([3]; Glycine 150 μM)	equilibrium potential for the drug (intersection of drug and control I-V curves) ([3]; Glycine 150 μM)
CN1CC[C@]23c4c5ccc(O)c4O[C@H]2[C@@H](O)C=C[C@H]3[C@H]1C5 [Morphine, reference compound]	Morphine <control	nearly immobile	5	–	–	–	–	–	–	–	–	–	–	–	–	–	–	–	–
NC1(C(=O)O)CCC1 [ACBC, 1-amino-cyclobutane-1-carboxylic acid]	significantly reduced; also recorded: greatly reduces	–	–	significantly reduced; also recorded: greatly reduces	significantly reduced	equal to that produced by morphine	94 mg/kg	no observed behavioral toxicity	No sedation occurred	0*	increased the slope of the I-V curve	153 pA	increase in membrane input resistance; also recorded: decreased	decreased	depressed action potential firing; also recorded: depressed tonic firing	−92 mV	greater than 60 minutes	–	–
NCC(=O)O [Glycine, reference compound]	–	–	–	–	–	–	–	–	–	–	–	–	–	–	–	–	–	increased the slope of the I-V curve	−53 mV
